Measured values from ChEMBL document CHEMBL2417512, “Spirolactam-based acetyl-CoA carboxylase inhibitors: toward improved metabolic stability of a chromanone lead structure” (J Med Chem, 2013).
In brackets after ≈: the same amount, converted by molar mass.

Experiments:
[1] = Hepatic clearance in human liver microsomes; assay type: ADME, Microsome; conditions: read-out: CLH
[2] = Lipophilicity, log D of the compound; assay type: physicochemical; conditions: octanol/water
[3] = Systemic clearance in rat at 1 mg/kg, iv; assay type: ADME, organism-based; design: dose 1 mg/kg, route intravenous; conditions: in vivo
[4] = Volume of distribution in rat at 1 mg/kg, iv; assay type: ADME, organism-based; design: dose 1 mg/kg, route intravenous; conditions: in vivo
[5] = AUC (last) in rat at 5 mg/kg, po; assay type: ADME, organism-based; design: time 0 - last, dose 5 mg/kg, route oral; conditions: plasma
[6] = Cmax in rat at 5 mg/kg, po; assay type: ADME, organism-based; design: dose 5 mg/kg, route oral; conditions: in vivo
[7] = Oral bioavailability in rat at 5 mg/kg; assay type: ADME, organism-based; conditions: in vivo
[8] = Solubility of the compound at pH 6.5; assay type: physicochemical; conditions: buffer
[9] = Thermodynamic solubility of the compound at pH 1.2; assay type: physicochemical; conditions: buffer, read-out: Therm_solubility

Row | microsomal CLint [1] | logD [2] | SMILES | also measured
1 | 19 µL/min/mg | 1.9 | CN(C)c1ccc2ccc(C(=O)N3CCC4(CC3)Cc3cn(C(C)(C)C)nc3C(=O)N4)cc2n1 | 
2 | < 8 µL/min/mg | 2.5 | CC(C)(C)n1cc2c(n1)C(=O)NC1(CCN(C(=O)c3ccc4[nH]nc(C(F)(F)F)c4c3)CC1)C2 | 
3 | < 8 µL/min/mg | 1.8 | CC(C)(C)n1cc2c(n1)C(=O)NC1(CCN(C(=O)c3ccc4[nH]nc(Cl)c4c3)CC1)C2 | 
4 | 17 µL/min/mg | 2.6 | CC(C)(C)n1cc2c(n1)C(=O)NC1(CCN(C(=O)c3ccc4[nH]cc(Cl)c4c3)CC1)C2 | 
5 | 31 µL/min/mg | 3.5 | CC(C)(C)n1cc2c(n1)C(=O)NC1(CCN(C(=O)c3ccc4c(Cl)c[nH]c4c3)CC1)C2 | 
6 | < 8 µL/min/mg | 1.4 | CC(C)(C)n1cc2c(n1)C(=O)NC1(CCN(C(=O)c3cnc4c(Cl)c[nH]c4c3)CC1)C2 | 
7 | < 8 µL/min/mg | 1.6 | COc1cc2cc(C(=O)N3CCC4(CC3)Cc3cn(C(C)(C)C)nc3C(=O)N4)ccc2cn1 | 
8 | < 8 µL/min/mg | 2.2 | COc1ccc2ccc(C(=O)N3CCC4(CC3)Cc3cn(C(C)(C)C)nc3C(=O)N4)cc2n1 | clearance [3]: 29 mL/min/kg; Vd [4]: 1.7 L/kg; AUC(0-t) [5]: 2070 ng·h/mL; Cmax [6]: 403 ng/mL; bioavailability [7]: 71%; solubility [8]: 0.05 µg/mL (≈ 0.112 µM); solubility thermodynamic [9]: 0.49 µg/mL (≈ 1.09 µM)
9 | 12 µL/min/mg | 2 | COc1nccc2ccc(C(=O)N3CCC4(CC3)Cc3cn(C(C)(C)C)nc3C(=O)N4)cc12 | clearance [3]: 41 mL/min/kg; AUC(0-t) [5]: 713 ng·h/mL; Cmax [6]: 186 ng/mL; bioavailability [7]: 28%; solubility [8]: 0.13 µg/mL (≈ 0.29 µM)
10 | 9 µL/min/mg | 1.5 | CNc1ccc2ccc(C(=O)N3CCC4(CC3)Cc3cn(C(C)(C)C)nc3C(=O)N4)cc2n1 | solubility thermodynamic [9]: 4.8 µg/mL (≈ 10.7 µM)
11 | 25 µL/min/mg | 1.5 | CNc1nccc2ccc(C(=O)N3CCC4(CC3)Cc3cn(C(C)(C)C)nc3C(=O)N4)cc12 | 
12 | 29 µL/min/mg | 2.1 | CCCNc1ccc2ccc(C(=O)N3CCC4(CC3)Cc3cn(C(C)(C)C)nc3C(=O)N4)cc2n1 | 
13 | < 9 µL/min/mg | 1.4 | CC(C)(C)n1cc2c(n1)C(=O)CC1(CCN(C(=O)c3ccc4[nH]ncc4c3)CC1)O2 | 
14 | 19 µL/min/mg | 2.5 | Cc1ccc2c(c1)C(=O)CC1(CCN(C(=O)c3ccc4[nH]ncc4c3)CC1)O2 | 
15 | < 8 µL/min/mg | 1 | CC(C)(C)n1cc2c(n1)C(=O)NC1(CCN(C(=O)c3ccc4[nH]ncc4c3)CC1)C2 | 
16 | < 8 µL/min/mg | 1.5 | Cc1n[nH]c2c(C)cc(C(=O)N3CCC4(CC3)Cc3cn(C(C)(C)C)nc3C(=O)N4)cc12 | 
17 | < 8 µL/min/mg | 1.1 | Cc1n[nH]c2c(C)cc(C(=O)N3CCC4(CC3)Cc3cn(C(C)C)nc3C(=O)N4)cc12 | 
18 | 35 µL/min/mg | 1.7 | CCC(C)(C)n1cc2c(n1)C(=O)NC1(CCN(C(=O)c3cc(C)c4[nH]nc(C)c4c3)CC1)C2 | 
19 | 17 µL/min/mg | 2.6 | Cc1n[nH]c2c(C)cc(C(=O)N3CCC4(CC3)Cc3cnn(C(C)(C)C)c3C(=O)N4)cc12 | 
20 | < 8 µL/min/mg | 1.7 | Cc1n[nH]c2c(C)cc(C(=O)N3CCC4(CC3)Cc3cnn(C(C)C)c3C(=O)N4)cc12 | 
21 | 14 µL/min/mg | 1.4 | Cc1n[nH]c2c(C)cc(C(=O)N3CCC4(CC3)Cc3cn(C(C)(C)C)nc3C(=O)N4C)cc12 | 
